Results: US20130330754A1, “SOL-GEL DERIVED SENSOR FOR RAPID DETERMINATION OF HEAVY METALS” (priority 2012, published 2013)

How the values were obtained:
[1] = target: T1, β-galactosidase (B-GAL) (Escherichia coli, UniProt P00722); assay: B-GAL inhibition by heavy metals on bioactive paper sensor (CPRG colour intensity); type: biochemical, E. coli; conditions: for IC50 values (concentration to obtain 50% inhibition of B-GAL) / limits of detection (LODs): paper sensor, 10 min incubation with metal; for limits of detection (LODs): B-GAL/CPRG assay; for inhibition of B-GAL: single metal
Description: The sensors were constructed based on an enzyme, B-GAL vs. substrate, CPRG system with three design strategies: a one-dimensional strategy and two flower shape strategies. In the one-dimensional strategy, a section of Whatman #1 paper was cut into small pieces (0.5×8 cm) on which B-GAL and CPRG were entrapped using sol-gel derived sol gel materials into two different zones (e.g., enzyme or sensing and substrate zones). To prevent leaching the color, a hydrophobic barrier was also introduced on the top (FIG. 1b) of the sensing zone(s) using either wax (by wax printer, Xerox Phaser 8560N) or methyltrimethoxysilane (MTMS) (via piezoelectric inkjet printing).
The sensing zones for all cases were incubated with a drop of contaminated sample for 10 min. The bottom of the paper sensor (FIG. 1b, c) was placed into water while a few drops of water were put at the middle of the sensor (FIG. 1d) for lateral flow chromatography. The color intensity was monitored after 5 min air drying at room temperature. The inkjet printing was done as described elsewhere.^31, 32 After printing, the sensor was allowed to dry for at least 1 h in air at room temperature.
The inhibitory effects of these metals on the solid-phase biosensor were evaluated by measuring the decrease in the color intensity produced by the enzyme-substrate reaction. The sensing region of the paper sensor was first incubated with various concentrations of heavy metals (5 μL) for 10 min after which the paper sensor was allowed for lateral flow chronographic system. The images were taken after 5-10 min air drying at room temperature.
The color intensity of the sensing areas was monitored either by the naked eye, by obtaining a digital image (Canon G11 12 MegaPixel camera operated in automatic mode with no flash and with the macroimaging setting on) or by using an office scanner, with ImageJ™ software being used to analyze the Jpeg images in the latter two cases. The numerical single color coordinates values were obtained using the ImageJ™ color split channel system. All data points represent the average of four replicate experiments and the error bars represent the standard deviations (s.d.) of those points.

[2] = target: T1, β-galactosidase (B-GAL); conditions: EDTA 10 mM; Hg(II), Ag(I) ~2.7 ppm each, other metals ~8 ppm each
[3] = target: T1, β-galactosidase (B-GAL)
Method: The sensor was incubated with a 5 μL sample for 10 min (a separate paper sensor was made for each concentration) and the B-GAL inhibition tested as outlined above.

T1 sequence (P00722 2-1024): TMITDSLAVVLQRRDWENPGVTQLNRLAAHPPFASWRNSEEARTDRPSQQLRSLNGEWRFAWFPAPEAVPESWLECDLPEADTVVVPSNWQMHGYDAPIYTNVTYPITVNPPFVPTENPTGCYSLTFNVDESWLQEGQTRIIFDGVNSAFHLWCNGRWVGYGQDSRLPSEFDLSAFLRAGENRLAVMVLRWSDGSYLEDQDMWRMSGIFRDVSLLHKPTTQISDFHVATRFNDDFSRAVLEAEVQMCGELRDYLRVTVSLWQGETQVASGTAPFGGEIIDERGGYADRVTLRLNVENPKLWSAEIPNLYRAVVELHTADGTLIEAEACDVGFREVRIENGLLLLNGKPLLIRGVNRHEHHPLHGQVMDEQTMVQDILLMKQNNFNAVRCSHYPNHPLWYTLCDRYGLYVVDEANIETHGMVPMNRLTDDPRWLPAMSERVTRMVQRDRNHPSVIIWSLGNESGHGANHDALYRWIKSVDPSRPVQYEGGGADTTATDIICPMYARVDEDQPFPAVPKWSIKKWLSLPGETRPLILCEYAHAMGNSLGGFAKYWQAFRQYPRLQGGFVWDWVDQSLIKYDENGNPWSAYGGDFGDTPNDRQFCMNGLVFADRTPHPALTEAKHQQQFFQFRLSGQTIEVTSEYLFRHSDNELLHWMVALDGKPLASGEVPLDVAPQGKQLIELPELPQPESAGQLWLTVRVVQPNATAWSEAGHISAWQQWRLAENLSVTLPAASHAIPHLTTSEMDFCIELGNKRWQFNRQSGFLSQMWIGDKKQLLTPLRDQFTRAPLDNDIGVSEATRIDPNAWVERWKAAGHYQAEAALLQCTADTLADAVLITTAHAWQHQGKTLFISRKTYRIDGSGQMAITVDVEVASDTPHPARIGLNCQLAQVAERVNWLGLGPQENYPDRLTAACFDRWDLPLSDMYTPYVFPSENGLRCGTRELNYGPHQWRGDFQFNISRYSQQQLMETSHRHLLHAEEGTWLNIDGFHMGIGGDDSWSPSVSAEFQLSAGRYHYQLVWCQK

| Compound | IC50 values (concentration to obtain 50% inhibition of B-GAL) [1] [ppm] | limits of detection (LODs) [1] [ppm] | inhibition of B-GAL ([1]; 0.1 μM) | inhibition of B-GAL after inclusion of EDTA [2] | inhibition of B-GAL ([1]; 3 μM) [%] | limit of detection ([3]; Hg^2+ mixed with NaCl (10 μM)) [µM] | IC50 ([3]; read-out: IC50 value, Hg^2+ mixed with NaCl (10 μM)) [nM] | effect of nontoxic metal ion on response vs. concentration of Hg^2+ and limit of detection ([3]; NaCl 10 μM, KCl 100 ppm) |
| --- | --- | --- | --- | --- | --- | --- | --- | --- |
| O=[N+]([O-])[O-].[Ag+] [Ag(I), AgNO3] | 0.05 | ~0.002 | about 35% | retaining the inhibition |  |  |  |  |
| [Cl][Cd][Cl] [Cd(II), CdCl2] | 1.14 | ~0.020 |  | completely removed the inhibition |  |  |  |  |
| O=S(=O)([O-])[O-].[Cu+2] [Cu(II), CuSO4] | 0.70 | ~0.020 |  | completely removed the inhibition | 23 |  |  |  |
| [Cl][Hg][Cl] [Hg(II), HgCl2] | 0.03 |  | 42% | completely removed the inhibition |  | ~0.01 | 120 |  |
| [Cl-].[Na+] [NaCl] |  |  |  |  |  |  |  | negligible effect |
| [Ni+2] [Ni(II)] | 1.80 | ~0.230 |  | completely removed the inhibition |  |  |  |  |
| [Pb+2] [Pb(II)] | 1.40 | ~0.140 |  | completely removed the inhibition |  |  |  |  |
| Cr(VI) | 1.49 | ~0.150 |  | retaining the inhibition |  |  |  |  |
